Reference: US7045532B2 (Millennium Pharmaceuticals, Inc., priority 1999, dated 2006)

biological target: T1, ACE-2 (Homo sapiens, UniProt Q9BYF1); test: ACE-2 Competitive Substrate Assay (ACS Assay); format: biochemical; details: Ki class per key; compounds tested in 5% DMSO, 12 compound concentrations, 25° C.; Ki=Kiapp/(1+[S]/Km); read-out: Human ACE-2 Activity
T1 construct: a stop codon inserted after the serine immediately preceding the transmembrane domain; made in house; host or cells: CHO K1 cells (transient transfection, purified from conditioned medium)
T1 sequence (Q9BYF1 18-740 limits assumed): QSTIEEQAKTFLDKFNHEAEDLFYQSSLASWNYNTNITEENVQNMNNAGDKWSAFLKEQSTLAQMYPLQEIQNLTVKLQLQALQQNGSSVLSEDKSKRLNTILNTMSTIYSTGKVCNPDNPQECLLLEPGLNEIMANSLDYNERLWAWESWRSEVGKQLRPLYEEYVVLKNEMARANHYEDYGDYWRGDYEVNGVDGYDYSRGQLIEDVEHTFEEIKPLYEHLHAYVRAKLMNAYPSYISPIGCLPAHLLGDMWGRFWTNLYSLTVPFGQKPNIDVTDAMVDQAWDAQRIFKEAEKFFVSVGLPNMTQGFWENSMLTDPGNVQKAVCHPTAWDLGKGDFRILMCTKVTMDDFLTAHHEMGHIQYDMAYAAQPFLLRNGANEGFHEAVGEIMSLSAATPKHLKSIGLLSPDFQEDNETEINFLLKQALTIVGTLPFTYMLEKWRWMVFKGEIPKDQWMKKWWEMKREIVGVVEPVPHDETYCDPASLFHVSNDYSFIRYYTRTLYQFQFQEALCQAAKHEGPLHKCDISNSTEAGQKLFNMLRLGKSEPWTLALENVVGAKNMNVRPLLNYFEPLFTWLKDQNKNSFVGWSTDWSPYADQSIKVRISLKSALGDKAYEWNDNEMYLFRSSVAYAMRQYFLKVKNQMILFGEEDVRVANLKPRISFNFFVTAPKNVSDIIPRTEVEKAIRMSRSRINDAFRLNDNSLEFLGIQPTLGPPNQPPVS

Ki [nM]	SMILES
> 500	CC(C)C[C@H](N[C@@H](Cc1ccc(C(=O)NC2CCCCC2)cc1)C(=O)O)C(=O)O [QH, 2-[1-Carboxy-2-(4-cyclohexylcarbamoyl-phenyl)-ethylamino]-4-methyl-pentanoic acid]
< 100	O=C(O)[C@H](CCc1ccccc1)N[C@@H](Cc1cncn1Cc1cc(Cl)cc(Cl)c1)C(=O)O [PN, (S,S) 2-{1-Carboxy-2-[3-(3,5-dichloro-benzyl)-3H-imidazol-4-yl]-ethylamino}-4-phenyl-butyric acid]
< 100	CC(C)C[C@H](N[C@@H](Cc1cc(-c2ccc(Cl)cc2)on1)C(=O)O)C(=O)O [QU, 2-(1-Carboxy-2-[5-(4-chloro-phenyl)-isoxazol-3-yl]-ethylamino]-4-methyl-pentanoic acid]
100 to 500	CC(C)C[C@H](N[C@@H](Cc1cccc(Cc2cccc(Cl)c2)c1)C(=O)O)C(=O)O [PF, 2-[1-Carboxy-2-[3-(3-chloro-benzyl)-phenyl]-ethylamino]-4-methyl-pentanoic acid]
100 to 500	CC(C)C[C@H](N[C@@H](Cc1ccccc1-c1cc(Cl)cc(Cl)c1)C(=O)O)C(=O)O [PT, S,S-2-[1-Carboxy-2-(3′,5′dichloro-biphenyl-2-yl)-ethylamino]-4-methyl-pentanoic acid]

same assay, conditions: Ki class; compounds tested in 5% DMSO, 12 compound concentrations, Ki=Kiapp/(1+[S]/Km); read-out: Human ACE-2 Activity

Ki [nM]	SMILES
100 to 500	CC(C)C[C@@H](N[C@H](Cc1cncn1Cc1cc(Cl)cc(Cl)c1)C(=O)O)C(=O)O [MZ, (R,R)-2-{1-Carboxy-2-[3-(3,5-dichloro-benzyl)-3H-imidazol-4-yl]-ethylamino}-4-methyl-pentanoic acid]
100 to 500	C=CCOc1cccc(C[C@H](N[C@@H](CC(C)C)C(=O)O)C(=O)O)c1 [NB, S,S-2-[2-(3-Allyloxy-phenyl)-1-carboxy-ethylamino]-4-methyl pentanoic acid]
100 to 500	CC(C)C[C@H](N[C@@H](Cc1ccc(OCc2ccccc2)cc1)C(=O)O)C(=O)O [KQ, S,S-2-[2-(4-Benzyloxy-phenyl)-1-carboxy-ethylamino-]4-methyl-pentanoic acid]
100 to 500	CC(C)CC(N[C@@H](C[C@H]1COC(=O)N1Cc1cc(Cl)cc(Cl)c1)C(=O)O)C(=O)O (stereo in doubt) [NN, (R,S,S)-2-{1-Carboxy-2-[3-(3,5-dichloro-benzyl)-2-oxo-oxazolidin-4-yl]-ethylamino}-4-methyl-pentanoic acid]
> 500	CC(C)C[C@H](N[C@@H](Cc1cncn1Cc1cc(Cl)cc(Cl)c1)C(=O)OC1CCCC1)C(=O)O [LQ, (S,S) 2-{1-Cyclopentyloxycarbonyl-2-[3-(3,5-dichloro-benzyl)-3H-imidazol-4-yl]-ethylamino}-4-methyl-pentanoic acid]
> 500	CC(C)CC(N[C@@H](Cc1cncn1Cc1ccccc1-c1ccccc1)C(=O)O)C(=O)O (single isomer, unassigned) [IE]
100 to 500	Cc1cc(C)cc(-c2ccc(C[C@H](N[C@@H](CC(C)C)C(=O)O)C(=O)O)o2)c1 [NT, (S,S)-2-{1-Carboxy-2-[5-(3,5-dimethyl-phenyl)-furan-2-yl]-ethylamino}-4-methyl-pentanoic acid]
> 500	CC(C)CC(NC(Cc1cccc(OCc2ccc(C(F)(F)F)cc2C(F)(F)F)c1)C(=O)O)C(=O)O (stereo not drawn) [OC, 2-{2-[3-(2,4-Bis-trifluoromethyl-benzyloxy)-phenyl]-1-carboxy-ethylamino}-4-methyl-pentanoic acid]
> 500	CC(C)C[C@H](N[C@@H](Cc1cccc(-c2ccsc2)c1)C(=O)O)C(=O)O [MJ, (S,S)-2-[1-Carboxy-2-(3-thiophen-3-yl-phenyl)-ethylamino]-4-methyl-pentanoic acid]

same assay, conditions: Ki class; compounds tested in 5% DMSO, 12 concentrations; read-out: Human ACE-2 Activity

Ki [nM]	SMILES
> 500	CC(C)CC(N[C@@H](Cc1csc(-c2ccccc2)n1)C(=O)O)C(=O)O (stereo in doubt) [GQ, 2-[1-Carboxy-2-[2-phenyl-thiazol-4-yl)-ethylamino]-4-methyl-pentanoic acid]
> 500	CC(C)CC(N[C@@H](CN(Cc1ccccc1)c1ccccc1)C(=O)O)C(=O)O (stereo partly drawn) [GT, 2-[2-(Benzyl-phenyl-amino)-1-carboxy-ethylamino]-4-methyl-pentanoic acid]

same assay, conditions: Table 3, very good ACE-2 inhibiting compounds; species not given; read-out: ACE-2 Activity, Ki

Ki [nM]	SMILES
< 50	O=C(O)[C@H](CCc1ccccc1)N[C@@H](Cc1cncn1Cc1cc(Cl)cc(Cl)c1)C(=O)O [PN, (S,S) 2-{1-Carboxy-2-[3-(3,5-dichloro-benzyl)-3H-imidazol-4-yl]-ethylamino}-4-phenyl-butyric acid]
< 50	CC(C)C[C@H](N[C@@H](Cc1cc(-c2ccc(Cl)cc2)on1)C(=O)O)C(=O)O [QU, 2-(1-Carboxy-2-[5-(4-chloro-phenyl)-isoxazol-3-yl]-ethylamino]-4-methyl-pentanoic acid]
